According to patent US20250009819A1, “NOVEL PROBIOTICS AND USE THEREOF” (PBLBIOLAB CO., LTD., priority 2021, published 2025):

Tests used:
[1] = Antioxidant activity (DPPH, in vitro); format: biochemical; conditions: DPPH 0.2 mM; lactic acid bacteria suspension 1×10^8 CFU/ml; 37° C. 20 min
Protocol: DPPH (2,2-Diphenyl-1-picrylhydrazyl) was dissolved in ethanol to a concentration of 0.2 mM to prepare DPPH solution. Lactic acid bacteria suspension (1×10^8 CFU/ml) or vitamin C solution (1 g/ml) was added to 0.1 ml of the above DPPH solution and incubated at 37° C. for 20 min. The culture was centrifuged at 3000 rpm for 5 min to obtain a supernatant. The absorbance of the supernatant was then measured at 517 nm and the antioxidant activity of the lactic acid bacteria was calculated.

[2] = tested on: TNF-α; experiment: TNF-α expression in LPS-treated macrophages (ELISA); format: cell-based, C57BL/6 mice; conditions: macrophages treated with lactic acid bacteria and LPS for 24 hours
Protocol: (§1) C57BL/6 mice (male, 6 weeks old, 20-23 g) were subjected to an intraperitoneal injection of 2 ml of sterile 4% thioglycolate solution, and after 96 hours, the mice were anesthetized and injected with 8 ml of RPMI 1640 medium through the peritoneal cavity. Then, after 5-10 minutes, the RPMI medium (macrophages) in the mouse peritoneal cavity was extracted, centrifuged at 1000 g for 10 minutes, and washed again with RPMI 1640 medium twice. Macrophages were seeded in 24-well plates at a count of 0.5×10^6 in each well, and treated with lactic acid bacteria and LPS, an inflammatory response-inducing substance, for 24 hours. TNF-α and IL-10 cytokine expression amount in the culture supernatant was then measured by ELISA Kit.

[3] = tested on: IL-10; experiment: IL-10 expression in LPS-treated macrophages (ELISA); format: cell-based, C57BL/6 mice; conditions: macrophages treated with lactic acid bacteria and LPS for 24 hours
Protocol: as §1

[4] = tested on: BDNF; experiment: BDNF expression in SH-SY5Y cells; format: cell-based; conditions: LPS 200 ng/ml; lactic acid bacteria 1×10^4 CFU/ml; 24 h
Protocol: (§2) SH-SY5Y cells obtained from the Korean Cell Line Bank were cultured in DMEM medium supplemented with 10% FBS and 1% antibiotics, and dispensed at 2×10^6 cells per well in a 12-well plate. Then, LPS (200 ng/ml) was added to each well along with lactic acid bacteria (1×10^4 CFU/ml) and incubated for 24 h. The cells and supernatants were collected, sonicated and centrifuged, and the amount of BDNF in the supernatant was measured by ELISA kit.

[5] = tested on: Neuropeptide Y (NPY); experiment: Neuropeptide Y (NPY) expression in PC12 phaeochromocytoma cells; format: cell-based; conditions: LPS 200 ng/ml; lactic acid bacteria 1×10^4 CFU/ml; 24 hr
Protocol: as §2, with “PC12” for “SH-SY5Y”, “1×10^6” for “2×10^6”, “hr.” for “h.”, “NPY” for “BDNF”

[6] = tested on: Clostridium difficile; experiment: Clostridium difficile proliferation in gut microbiota (PCR); format: cell-based; conditions: human feces culture; lactic acid bacteria 1×10^6 CFU/mL; anaerobic 24 hr
Protocol: Fresh human feces were suspended in anaerobic medium (GAM, Nissui Pharmaceutical Co., Ltd., Japan) and allowed to stand for 10 min. The supernatant was diluted with 10,000-fold anaerobic medium, 0.05 mL of the dilution was transplanted into 5 mL of freshly made anaerobic medium, and lactic acid bacteria (1×10^6 CFU/mL) were implanted and incubated anaerobically for 24 hr. This culture medium was divided into two, one was centrifuged (5000 rpm, 20 minutes), the precipitated DNA was isolated using the QIAamp DNA stool mini kit (Qiagen, Germany), and Clostridium difficile (primer: forward, 5′-[…]-3′ (SEQ ID NO: 4); reverse, 5′-[…]-3′ (SEQ ID NO: 5) was quantified by PCR. The reaction product was first treated at 95° C. for 30 seconds, followed by 42 cycles of 5 seconds at 95° C. and 30 seconds at 72° C. for analysis. In addition, one culture medium was sonicated, centrifuged, and filter-sterilized, and the amount of LPS in the supernatant was measured using an ELISA kit.

[7] = tested on: gut microbiota; experiment: LPS production in gut microbiota (ELISA); format: cell-based; conditions: human feces culture; lactic acid bacteria 1×10^6 CFU/mL; anaerobic 24 hr
Protocol: Fresh human feces were suspended in anaerobic medium (GAM, Nissui Pharmaceutical Co., Ltd., Japan) and allowed to stand for 10 min. The supernatant was diluted with 10,000-fold anaerobic medium, 0.05 mL of the dilution was transplanted into 5 mL of freshly made anaerobic medium, and lactic acid bacteria (1×10^6 CFU/mL) were implanted and incubated anaerobically for 24 hr.

Substance | Antioxidant activity [1] | Macrophage Inhibition of TNF-α expression [2] | Macrophage Induction of IL-10 expression [3] | SHSY5Y cell Induction of BDNF expression [4] | PC12 cell Induction of NPY expression [5] | Gut microbiota Inhibition of difficile bacteria proliferation [6] | Gut microbiota Inhibition of LPS production [7]
Bifidobacterium adolescentis NK220 | + (weakly (+; >20-60%)) | + (weakly (+; >20-60%)) | + (weakly (+; >20-60%)) | + (weakly (+; >20-60%)) | − (not or less than 20% (−; <20%)) | + (weakly (+; >20-60%)) | − (not or less than 20% (−; <20%))
Lactobacillus casei NK196 | ++ (strongly (++; >60-90%)) | − (not or less than 20% (−; <20%)) | − (not or less than 20% (−; <20%)) | − (not or less than 20% (−; <20%)) | + (weakly (+; >20-60%)) | + (weakly (+; >20-60%)) | + (weakly (+; >20-60%))
Bifidobacterium infantis NK214 | ++ (strongly (++; >60-90%)) | − (not or less than 20% (−; <20%)) | − (not or less than 20% (−; <20%)) | − (not or less than 20% (−; <20%)) | + (weakly (+; >20-60%)) | + (weakly (+; >20-60%)) | + (weakly (+; >20-60%))
Bifidobacterium adolescentis NK222 | + (weakly (+; >20-60%)) | + (weakly (+; >20-60%)) | + (weakly (+; >20-60%)) | − (not or less than 20% (−; <20%)) | + (weakly (+; >20-60%)) | + (weakly (+; >20-60%)) | + (weakly (+; >20-60%))
Lactobacillus rhamnosus NK212 | ++ (strongly (++; >60-90%)) | − (not or less than 20% (−; <20%)) | − (not or less than 20% (−; <20%)) | − (not or less than 20% (−; <20%)) | − (not or less than 20% (−; <20%)) | − (not or less than 20% (−; <20%)) | + (weakly (+; >20-60%))
Lactobacillus plantarum NK183 | + (weakly (+; >20-60%)) | + (weakly (+; >20-60%)) | − (not or less than 20% (−; <20%)) | − (not or less than 20% (−; <20%)) | − (not or less than 20% (−; <20%)) | + (weakly (+; >20-60%)) | + (weakly (+; >20-60%))
Lactococcus lactis NK208 | − (not or less than 20% (−; <20%)) | − (not or less than 20% (−; <20%)) | − (not or less than 20% (−; <20%)) | + (weakly (+; >20-60%)) | + (weakly (+; >20-60%)) | + (weakly (+; >20-60%)) | + (weakly (+; >20-60%))
Lactobacillus reuteri NK201 | + (weakly (+; >20-60%)) | + (weakly (+; >20-60%)) | + (weakly (+; >20-60%)) | + (weakly (+; >20-60%)) | + (weakly (+; >20-60%)) | + (weakly (+; >20-60%)) | + (weakly (+; >20-60%))
